For the test, the target named is T1, histamine H4 receptor (Homo sapiens, UniProt Q9H3N8).
T1 construct: expressed in transfected cells; host or cells: HEK293SFM cells (membrane preparation)
Kind of test: Inhibition of histamine H4 receptor (Table A1; H4 membrane binding assay). The settings on record: for IC50: histamine H4 receptor, "> a" = exceeds experiment limit. The gist of the method: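 Membranes came from recombinant HEK293SFM cells expressing human H4, homogenized in 50 mM Tris-HCl pH 7.5 with protease inhibitors. Nonspecific binding was set with 1000× unlabeled ligand. Bound radioligand was separated on PEI-treated GF/B filters and counted by liquid scintillation.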

This is an account of results in patent US20130244999A1, “Substituted Heterocyclic Compounds” (Incyte Corporation, priority 2008, published 2013).

T1 sequence (Q9H3N8 whole entry): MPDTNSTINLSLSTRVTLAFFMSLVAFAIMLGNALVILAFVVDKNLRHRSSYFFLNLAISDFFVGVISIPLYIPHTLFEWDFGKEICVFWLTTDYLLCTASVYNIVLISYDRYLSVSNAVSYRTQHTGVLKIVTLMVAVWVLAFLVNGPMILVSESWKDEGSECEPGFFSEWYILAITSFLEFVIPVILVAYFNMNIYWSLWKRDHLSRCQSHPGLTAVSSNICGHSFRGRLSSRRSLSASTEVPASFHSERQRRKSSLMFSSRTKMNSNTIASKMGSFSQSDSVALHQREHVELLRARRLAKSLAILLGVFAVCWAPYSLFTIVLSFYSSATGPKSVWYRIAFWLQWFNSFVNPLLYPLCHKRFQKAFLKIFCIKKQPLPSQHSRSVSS

`CC1Cc2ccc(-c3cnn(CC4CCCO4)c3)cc2CN1c1cc(N2CCN(C)CC2)nc(N)n1` (single isomer, unassigned) [Example 99B, 4-(4-Methylpiperazin-1-yl)-6-[3-methyl-7-[1-(tetrahydrofuran-2-ylmethyl)-1H-pyrazol-4-yl]-3,4-dihydroisoquinolin-2(1H)-yl]pyrimidin-2-amine] registered an IC50 of 172 nM.

Compound `CC1Cc2ccc(-c3cnn(CCF)c3)cc2CN1c1cc(N2CCN(C)CC2)nc(N)n1` (single isomer, unassigned) [Example 100, 4-[7-[1-(2-fluoroethyl)-1H-pyrazol-4-yl]-3-methyl-3,4-dihydroisoquinolin-2(1H)-yl]-6-(4-methylpiperazin-1-yl)pyrimidin-2-amine] displayed a 50% inhibitory concentration (IC50) of 20 nM.

In turn, `CC(C#N)Cn1cc(-c2ccc3c(c2)CN(c2cc(N4CCN(C)CC4)nc(N)n2)C(C)C3)cn1` (single isomer, unassigned) [Example 101, 3-(4-{2-[2-Amino-6-(4-methylpiperazin-1-yl)pyrimidin-4-yl]-3-methyl-1,2,3,4-tetrahydroisoquinolin-7-yl}-1H-pyrazol-1-yl)-2-methylpropanenitrile] yielded a half-inhibitory concentration (IC50) of 34 nM.

Consider `CC1Cc2ccc(-c3cnn(CC4CC4)c3)cc2CN1c1cc(N2CCN(C)CC2)nc(N)n1` (single isomer, unassigned) [Example 102, 4-[7-[1-(Cyclopropylmethyl)-1H-pyrazol-4-yl]-3-methyl-3,4-dihydroisoquinolin-2(1H)-yl]-6-(4-methylpiperazin-1-yl)pyrimidin-2-amine], for which the IC50 was 42 nM.

Regarding `CC1Cc2ccc(-c3cnn(C(C)CC#N)c3)cc2CN1c1cc(N2CCN(C)CC2)nc(N)n1` (single isomer, unassigned) [Example 103, 3-(4-{2-[2-Amino-6-(4-methylpiperazin-1-yl)pyrimidin-4-yl]-3-methyl-1,2,3,4-tetrahydroisoquinolin-7-yl}-1H-pyrazol-1-yl)butanenitrile], the IC50 was found to be 24 nM.

Regarding `CC1Cc2ccc(-c3cnn(CCN4CCOCC4)c3)cc2CN1c1cc(N2CCN(C)CC2)nc(N)n1` (single isomer, unassigned) [Example 104, 4-[3-Methyl-7-[1-(2-morpholin-4-ylethyl)-1H-pyrazol-4-yl]-3,4-dihydroisoquinolin-2(1H)-yl]-6-(4-methylpiperazin-1-yl)pyrimidin-2-amine], the IC50 was found to be 45 nM.

Turning to `CC1Cc2ccc(-c3cnn(C(C)C)c3)cc2CN1c1cc(N2CCN(C)CC2)nc(N)n1` (single isomer, unassigned) [Example 105, 4-[7-(1-Isopropyl-1H-pyrazol-4-yl)-3-methyl-3,4-dihydroisoquinolin-2(1H)-yl]-6-(4-methylpiperazin-1-yl)pyrimidin-2-amine], the half-maximal inhibitory concentration (IC50) turned out to be 53 nM.

On to `CC1Cc2ccc(-c3cnn(CC4CCC4)c3)cc2CN1c1cc(N2CCN(C)CC2)nc(N)n1` (single isomer, unassigned) [Example 106, 4-[7-[1-(cyclobutylmethyl)-1H-pyrazol-4-yl]-3-methyl-3,4-dihydroisoquinolin-2(1H)-yl]-6-(4-methylpiperazin-1-yl)pyrimidin-2-amine], for which the 50% inhibitory concentration (IC50) is 63 nM.

`CCn1cc(-c2ccc3c(c2)CN(c2cc(N4CCN(C)CC4)nc(N)n2)C(C)C3)cn1` (single isomer, unassigned) [Example 107, 4-[7-(1-Ethyl-1H-pyrazol-4-yl)-3-methyl-3,4-dihydroisoquinolin-2(1H)-yl]-6-(4-methylpiperazin-1-yl)pyrimidin-2-amine] returned a half-inhibitory concentration (IC50) of 42 nM.

As to `CC1Cc2ccc(-c3cnn(C4CCOC4)c3)cc2CN1c1cc(N2CCN(C)CC2)nc(N)n1` (single isomer, unassigned) [Example 108, 4-(4-Methylpiperazin-1-yl)-6-[3-methyl-7-[1-(tetrahydrofuran-3-yl)-1H-pyrazol-4-yl]-3,4-dihydroisoquinolin-2(1H)-yl]pyrimidin-2-amine], the IC50 came out at 46 nM.

Compound `CC1Cc2ccc(-c3cnn(CC4CCCC4)c3)cc2CN1c1cc(N2CCN(C)CC2)nc(N)n1` (single isomer, unassigned) [Example 109, 4-[7-[1-(Cyclopentylmethyl)-1H-pyrazol-4-yl]-3-methyl-3,4-dihydroisoquinolin-2(1H)-yl]-6-(4-methylpiperazin-1-yl)pyrimidin-2-amine] gave an IC50 of 100 nM.

`CC1Cc2ccc(-c3cnn(CCO)c3)cc2CN1c1cc(N2CCN(C)CC2)nc(N)n1` (single isomer, unassigned) [Example 110, 2-(4-{2-[2-Amino-6-(4-methylpiperazin-1-yl)pyrimidin-4-yl]-3-methyl-1,2,3,4-tetrahydroisoquinolin-7-yl}-1H-pyrazol-1-yl)ethanol]: the IC50 stood at 35 nM.

The compound `CC1Cc2ccc(-c3cnn(C4CCN(CCO)CC4)c3)cc2CN1c1cc(N2CCN(C)CC2)nc(N)n1` (single isomer, unassigned) [Example 111, 2-[4-(4-{2-[2-Amino-6-(4-methylpiperazin-1-yl)pyrimidin-4-yl]-3-methyl-1,2,3,4-tetrahydroisoquinolin-7-yl}-1H-pyrazol-1-yl)piperidin-1-yl]ethanol] gave a 50% inhibitory concentration (IC50) of 22 nM.

As for `COCCn1cc(-c2ccc3c(c2)CN(c2cc(N4CCN(C)CC4)nc(N)n2)C(C)C3)cn1` (single isomer, unassigned) [Example 112, 4-[7-[1-(2-Methoxyethyl)-1H-pyrazol-4-yl]-3-methyl-3,4-dihydroisoquinolin-2(1H)-yl]-6-(4-methylpiperazin-1-yl)pyrimidin-2-amine], the IC50 stood at 40 nM.

In turn, `CC1Cc2ccc(-c3cnn(CC(N)=O)c3)cc2CN1c1cc(N2CCN(C)CC2)nc(N)n1` (single isomer, unassigned) [Example 113, 2-(4-{2-[2-Amino-6-(4-methylpiperazin-1-yl)pyrimidin-4-yl]-3-methyl-1,2,3,4-tetrahydroisoquinolin-7-yl}-1H-pyrazol-1-yl)acetamide] registered an IC50 of 72 nM.

On to `CC1Cc2ccc(-c3cnn(CCC(N)=O)c3)cc2CN1c1cc(N2CCN(C)CC2)nc(N)n1` (single isomer, unassigned) [Example 114, 3-(4-{2-[2-Amino-6-(4-methylpiperazin-1-yl)pyrimidin-4-yl]-3-methyl-1,2,3,4-tetrahydroisoquinolin-7-yl}-1H-pyrazol-1-yl)propanamide], for which the IC50 was determined as 34 nM.

For `CC1Cc2ccc(-c3cnn(C4CCCC4)c3)cc2CN1c1cc(N2CCN(C)CC2)nc(N)n1` (single isomer, unassigned) [Example 115, 4-[7-(1-Cyclopentyl-1H-pyrazol-4-yl)-3-methyl-3,4-dihydroisoquinolin-2(1H)-yl]-6-(4-methylpiperazin-1-yl)pyrimidin-2-amine], the concentration for half-maximal inhibition (IC50) stood at 40 nM.

For `CC1Cc2ccc(-c3ccc(C(=O)N4CC[C@H](F)C4)nc3)cc2CN1c1cc(N2CCN(C)CC2)nc(N)n1` (single isomer, unassigned) [Example 154A], the IC50 was 85 nM.

For `CC1Cc2ccc(-c3ccc(C(=O)N4CC[C@H](F)C4)nc3)cc2CN1c1cc(N2CCN(C)CC2)nc(N)n1` (single isomer, unassigned) [Example 154B], the IC50 came out at 355 nM.

In turn, `CC1Cc2ccc(-c3ccn(Cc4ccccn4)n3)cc2CN1c1cc(N2CCN(C)CC2)nc(N)n1` (single isomer, unassigned) [Example 155, 4-(4-Methylpiperazin-1-yl)-6-[3-methyl-7-[1-(pyridin-2-ylmethyl)-1H-pyrazol-3-yl]-3,4-dihydroisoquinolin-2(1H)-yl]pyrimidin-2-amine] had a half-inhibitory concentration (IC50) of 15.3 nM.

The compound `CC1Cc2ccc(-c3ccn(Cc4cccnc4)n3)cc2CN1c1cc(N2CCN(C)CC2)nc(N)n1` (single isomer, unassigned) [Example 156, 4-(4-Methylpiperazin-1-yl)-6-[3-methyl-7-[1-(pyridin-3-ylmethyl)-1H-pyrazol-3-yl]-3,4-dihydroisoquinolin-2(1H)-yl]pyrimidin-2-amine] returned an IC50 of 8.7 nM.

The compound `CC1Cc2ccc(-c3ccn(Cc4ccncc4)n3)cc2CN1c1cc(N2CCN(C)CC2)nc(N)n1` (single isomer, unassigned) [Example 157, 4-(4-Methylpiperazin-1-yl)-6-[3-methyl-7-[1-(pyridin-4-ylmethyl)-1H-pyrazol-3-yl]-3,4-dihydroisoquinolin-2(1H)-yl]pyrimidin-2-amine] had an IC50 of 8.7 nM.

In turn, `CCNC(=O)c1cccc(-c2ccc3c(c2)CN(c2cc(N4CCN(C)CC4)nc(N)n2)C(C)C3)n1` (single isomer, unassigned) [Example 158, 6-{2-[2-Amino-6-(4-methylpiperazin-1-yl)pyrimidin-4-yl]-3-methyl-1,2,3,4-tetrahydroisoquinolin-7-yl}-N-ethylpyridine-2-carboxamide] had an inhibition at 1 µM of 70%.

In turn, `CC1Cc2ccc(-c3cnn(C)c3)cc2CN1c1cc(N2CCCC(N)C2)nc(N)n1` (stereo in doubt) [Example 119, 4-[(3S)-3-Aminopiperidin-1-yl]-6-[3-methyl-7-(1-methyl-1H-pyrazol-4-yl)-3,4-dihydroisoquinolin-2(1H)-yl]pyrimidin-2-amine] returned a 50% inhibitory concentration (IC50) of 91 nM.

`CN1CCN(c2cc(N3CCc4ccc(Br)cc4C3)nc(N)n2)CC1` [Example 1, 4-(7-Bromo-3,4-dihydroisoquinolin-2(1H)-yl)-6-(4-methylpiperazin-1-yl)pyrimidin-2-amine] displayed an IC50 of 39 nM.

The compound `CNC(=O)c1ccc(-c2ccc3c(c2)CN(c2cc(N4CCN(C)CC4)nc(N)n2)CC3)cn1` [Example 2, 5-{2-[2-Amino-6-(4-methylpiperazin-1-yl)pyrimidin-4-yl]-1,2,3,4-tetrahydroisaquinolin-7-yl}-N-methylpyridine-2-carboxamide] came in with an IC50 of 20 nM.

For `CC(=O)Nc1ccc(-c2ccc3c(c2)CN(c2cc(N4CCN(C)CC4)nc(N)n2)CC3)cn1` [Example 3, N-(5-{2-[2-Amino-6-(4-methylpiperazin-1-yl)pyrimidin-4-yl]-1,2,3,4-tetrahydroisoquinolin-7-yl}pyridin-2-yl)acetamide], the IC50 is 31 nM.
